Assay results: publication PMC8746709, “Benzothiazolium Derivative-Capped Silica Nanocomposites for β-Amyloid Imaging In Vivo” (Analytical Chemistry, 2021)

Target: T1, β-amyloid(1–42) (Aβ1–42) aggregates (Homo sapiens, UniProt P05067)
T1 construct: gene APP; Aβ1–42, aggregates (filamentous)
Assay: fluorescence saturation binding assay with Aβ[…] aggregates

T1 sequence (P05067 672-713): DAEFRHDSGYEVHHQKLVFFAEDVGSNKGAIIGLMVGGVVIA

| Kd [nM] | SMILES |
| --- | --- |
| 601 ± 94.8 | CN(C)c1ccc(/C=C/C=C/c2sc3ccccc3[n+]2C)cc1 [SZI-2, 2-((1E,3E)-4-(4-(Dimethylamino)phenyl)buta-1,3-dien-1-yl)-3-methylbenzo[d]thiazol-3-ium Iodide] |
| 508 ± 94.8 | CN(C)c1ccc(/C=C/c2sc3ccccc3[n+]2C)cc1 [SZI-1, (E)-2-(4-(Dimethylamino)styryl)-3-methylbenzo[d]thiazol-3-ium Iodide] |
